Measured values reported in patent US10899793B2, “Melanocortin ligands and methods of use thereof” (priority 2016, dated 2021).
Square brackets hold non-standard residues; d marks the D form. Peptide text beside a SMILES is read from it. Bip = N[C@@H](Cc1ccc(-c2ccccc2)cc1)C(=O)O; dPhe(4-I) = N[C@H](Cc1ccc(I)cc1)C(=O)O; 2Nal = N[C@@H](Cc1ccc2ccccc2c1)C(=O)O; d2Nal = N[C@H](Cc1ccc2ccccc2c1)C(=O)O; Bta = N[C@@H](Cc1csc2ccccc12)C(=O)O; Tic = O=C(O)[C@@H]1Cc2ccccc2CN1

Legend:
mMC3R [1] = molecular target: T1, mMC3R (Mus musculus, UniProt P33033); test: AlphaScreen cAMP agonist assay at mMC3R; details: Table 1; @ 100 μM
T1 sequence (P33033 whole entry): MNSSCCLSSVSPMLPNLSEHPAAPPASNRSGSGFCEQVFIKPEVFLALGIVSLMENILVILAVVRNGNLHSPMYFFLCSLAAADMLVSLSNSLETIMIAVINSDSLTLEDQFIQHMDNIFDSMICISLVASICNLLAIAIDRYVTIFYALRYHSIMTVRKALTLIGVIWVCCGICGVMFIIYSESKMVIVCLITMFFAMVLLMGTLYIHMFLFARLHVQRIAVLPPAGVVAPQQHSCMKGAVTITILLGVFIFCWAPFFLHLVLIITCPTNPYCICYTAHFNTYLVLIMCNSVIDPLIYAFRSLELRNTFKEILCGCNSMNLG

mMC3R [2] = molecular target: T1, mMC3R; details: Table 1; Schild analysis, pA2 = -Log(Ki); Full Agonist = full dose-response, No Activity = no shift in EC50
mMC5R = mMC5R (Mus musculus, UniProt P41149); test: AlphaScreen cAMP agonist assay at mMC5R; details: read-out: percent of the NDP-MSH maximal positive control, Table 2
Sequence of mMC5R (P41149 whole entry): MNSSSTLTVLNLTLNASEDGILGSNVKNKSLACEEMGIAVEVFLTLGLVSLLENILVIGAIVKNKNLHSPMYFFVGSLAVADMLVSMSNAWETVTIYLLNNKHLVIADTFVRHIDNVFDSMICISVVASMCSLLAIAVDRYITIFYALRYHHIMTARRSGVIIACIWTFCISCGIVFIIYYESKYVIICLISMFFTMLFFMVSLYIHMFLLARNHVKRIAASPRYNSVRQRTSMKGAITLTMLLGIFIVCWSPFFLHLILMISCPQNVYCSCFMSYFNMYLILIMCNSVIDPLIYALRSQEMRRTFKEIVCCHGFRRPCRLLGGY

mMC4R = mMC4R (Mus musculus, UniProt P56450); details: for mMC4R Antagonist pA2 ± SEM: Table 1, Schild analysis, pA2 = -Log(Ki)
Sequence of mMC4R (P56450 whole entry): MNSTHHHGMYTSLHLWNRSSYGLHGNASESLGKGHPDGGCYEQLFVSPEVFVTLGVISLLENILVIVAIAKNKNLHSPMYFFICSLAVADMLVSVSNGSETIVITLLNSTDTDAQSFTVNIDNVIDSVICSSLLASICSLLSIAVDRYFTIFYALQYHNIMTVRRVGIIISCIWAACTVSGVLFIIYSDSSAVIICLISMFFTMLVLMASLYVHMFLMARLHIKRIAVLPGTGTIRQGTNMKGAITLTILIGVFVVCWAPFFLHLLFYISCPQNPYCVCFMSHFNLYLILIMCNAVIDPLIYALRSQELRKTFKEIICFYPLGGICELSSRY

Row | Compound | mMC3R Agonist, percent of the NDP-MSH maximal positive control (mMC3R [1]) [% @ 100 μM] | mMC3R Antagonist pA2 ± SEM (mMC3R [2]) | activation at 100 µM (mMC5R) [%] | mMC4R Antagonist pA2 ± SEM (mMC4R) | antagonist pA2 at the mMC4R (mMC4R)
1 | CC(=O)N[C@@H](CCCNC(=N)N)C(=O)N[C@@H](CCCNC(=N)N)C(=O)N[C@H](Cc1ccc(I)cc1)C(=O)N[C@@H](Cc1ccc2ccccc2c1)C(N)=O [SKY4-48-34, Ac-Arg-Arg-(pI)DPhe-Nal(2′)-NH2] | 51 |  |  |  | 
2 | CC(=O)N[C@@H](Cc1ccc2ccccc2c1)C(=O)N[C@@H](CCCNC(=N)N)C(=O)N[C@H](Cc1ccc(I)cc1)C(=O)N[C@@H](Cc1ccc(-c2ccccc2)cc1)C(N)=O [SKY4-48-8, Ac-Nal(2′)-Arg-(pI)DPhe-Bip-NH2] (Ac-[2Nal]R[dPhe(4-I)][Bip]-NH2) |  | Full Agonist |  | Full Agonist | 
3 | CC(=O)N[C@@H](Cc1ccc2ccccc2c1)C(=O)N[C@@H](CCCNC(=N)N)C(=O)N[C@H](Cc1ccc(I)cc1)C(=O)N[C@@H](Cc1csc2ccccc12)C(N)=O [SKY4-48-16, Ac-Nal(2′)-Arg-(pI)DPhe-3Bal-NH2] (Ac-[2Nal]R[dPhe(4-I)][Bta]-NH2) |  | Full Agonist |  |  | 
4 | CC(=O)N[C@@H](Cc1ccc(-c2ccccc2)cc1)C(=O)N[C@@H](CCCNC(=N)N)C(=O)N[C@H](Cc1ccc(I)cc1)C(=O)N[C@@H](Cc1csc2ccccc12)C(N)=O [SKY4-48-12, Ac-Bip-Arg-(pI)DPhe-3Bal-NH2] (Ac-[Bip]R[dPhe(4-I)][Bta]-NH2) |  | Full Agonist |  | No Activity | 
5 | CC(=O)N[C@@H](Cc1ccc2ccccc2c1)C(=O)N[C@@H](CCCNC(=N)N)C(=O)N[C@H](Cc1ccc(I)cc1)C(=O)N[C@@H](Cc1ccc2ccccc2c1)C(N)=O [SKY4-48-40, Ac-Nal(2′)-Arg-(pI)DPhe-Nal(2′)-NH2] (Ac-[2Nal]R[dPhe(4-I)][2Nal]-NH2) | 39 | No Activity | 45 | No Activity | 
6 | CC(=O)N[C@@H](Cc1ccc2ccccc2c1)C(=O)N[C@@H](CCCNC(=N)N)C(=O)N[C@H](Cc1ccc(I)cc1)C(=O)N[C@@H](Cc1ccccc1)C(N)=O [SKY4-48-32, Ac-Nal(2′)-Arg-(pI)DPhe-Phe-NH2] (Ac-[2Nal]R[dPhe(4-I)]F-NH2) | 42 | No Activity | 49 | No Activity | 
7 | CC(=O)N[C@@H](Cc1csc2ccccc12)C(=O)N[C@@H](CCCNC(=N)N)C(=O)N[C@H](Cc1ccc(I)cc1)C(=O)N[C@@H](Cc1csc2ccccc12)C(N)=O [SKY4-48-13, Ac-3Bal-Arg-(pI)DPhe-3Bal-NH2] (Ac-[Bta]R[dPhe(4-I)][Bta]-NH2) |  | Full Agonist |  |  | 

The remaining lines, values ahead:

Row | mMC3R Agonist, percent of the NDP-MSH maximal positive control (mMC3R [1]) [% @ 100 μM] | mMC3R Antagonist pA2 ± SEM (mMC3R [2]) | activation at 100 µM (mMC5R) [%] | mMC4R Antagonist pA2 ± SEM (mMC4R) | antagonist pA2 at the mMC4R (mMC4R) | Compound
8 |  | No Activity | 21 | No Activity |  | CC(=O)N1Cc2ccccc2C[C@H]1C(=O)N[C@@H](CCCNC(=N)N)C(=O)N[C@H](Cc1ccc(I)cc1)C(=O)N[C@@H](Cc1ccccc1)C(N)=O [SKY4-48-30, Ac-Tic-Arg-(pI)DPhe-Phe-NH2] (Ac-[Tic]R[dPhe(4-I)]F-NH2)
9 | 77 | No Activity | 69 |  |  | CC(=O)N[C@@H](Cc1ccc(-c2ccccc2)cc1)C(=O)N[C@@H](CCCNC(=N)N)C(=O)N[C@H](Cc1ccc(I)cc1)C(=O)N[C@@H](Cc1ccccc1)C(N)=O [SKY4-48-28, Ac-Bip-Arg-(pI)DPhe-Phe-NH2] (Ac-[Bip]R[dPhe(4-I)]F-NH2)
10 | 32 | No Activity | 55 | No Activity |  | CC(=O)N[C@@H](Cc1ccc(-c2ccccc2)cc1)C(=O)N[C@@H](CCCNC(=N)N)C(=O)N[C@H](Cc1ccc(I)cc1)C(=O)N[C@H](Cc1ccc2ccccc2c1)C(N)=O [SKY4-48-44, Ac-Bip-Arg-(pI)DPhe-DNal(2′)-NH2] (Ac-[Bip]R[dPhe(4-I)][d2Nal]-NH2)
11 |  | No Activity | 50 | No Activity |  | CC(=O)N[C@@H](Cc1csc2ccccc12)C(=O)N[C@@H](CCCNC(=N)N)C(=O)N[C@H](Cc1ccc(I)cc1)C(=O)N[C@@H](Cc1ccc2ccccc2c1)C(N)=O [SKY4-48-37, Ac-3Bal-Arg-(pI)DPhe-Nal(2′)-NH2] (Ac-[Bta]R[dPhe(4-I)][2Nal]-NH2)
12 | 44 | No Activity | 61 |  |  | CC(=O)N[C@@H](Cc1ccccc1)C(=O)N[C@@H](CCCNC(=N)N)C(=O)N[C@H](Cc1ccc(I)cc1)C(=O)N[C@@H](Cc1ccc2ccccc2c1)C(N)=O [SKY4-48-39, Ac-Phe-Arg-(pI)DPhe-Nal(2′)-NH2] (Ac-FR[dPhe(4-I)][2Nal]-NH2)
13 |  |  |  |  | 6.9 | CC(=O)N[C@H](Cc1ccc2ccccc2c1)C(=O)N[C@@H](CCCNC(=N)N)C(=O)N[C@H](Cc1ccc(I)cc1)C(=O)N[C@@H](Cc1ccccc1)C(N)=O [SKY4-48-33, Ac-DNal(2′)-Arg-(pI)DPhe-Phe-NH2] (Ac-[d2Nal]R[dPhe(4-I)]F-NH2)
14 |  | Full Agonist |  |  |  | CC(=O)N[C@@H](Cc1ccc(-c2ccccc2)cc1)C(=O)N[C@@H](CCCNC(=N)N)C(=O)N[C@H](Cc1ccc(I)cc1)C(=O)N1Cc2ccccc2C[C@H]1C(N)=O [SKY4-48-20, Ac-Bip-Arg-(pI)DPhe-Tic-NH2] (Ac-[Bip]R[dPhe(4-I)][Tic]-NH2)
15 | 50 | No Activity | 52 | No Activity |  | CC(=O)N[C@@H](Cc1ccccc1)C(=O)N[C@@H](CCCNC(=N)N)C(=O)N[C@H](Cc1ccc(I)cc1)C(=O)N[C@@H](Cc1ccccc1)C(N)=O [SKY4-48-31, Ac-Phe-Arg-(pI)DPhe-Phe-NH2] (Ac-FR[dPhe(4-I)]F-NH2)
16 |  | Full Agonist |  |  |  | CC(=O)N[C@@H](Cc1c[nH]cn1)C(=O)N[C@@H](CCCNC(=N)N)C(=O)N[C@H](Cc1ccc(I)cc1)C(=O)N[C@@H](Cc1ccccc1)C(N)=O [SKY5-146-3, Ac-His-Arg-(pI)DPhe-Phe-NH2] (Ac-HR[dPhe(4-I)]F-NH2)
17 | 22 | No Activity | 39 |  |  | CC(=O)N[C@@H](Cc1ccccc1)C(=O)N[C@@H](CCCNC(=N)N)C(=O)N[C@H](Cc1ccc(I)cc1)C(=O)N[C@H](Cc1ccc2ccccc2c1)C(N)=O [SKY4-48-47, Ac-Phe-Arg-(pI)DPhe-DNal(2′)-NH2] (Ac-FR[dPhe(4-I)][d2Nal]-NH2)
